One test addresses T1, p300 (Homo sapiens, UniProt Q09472).
T1 construct: host or cells: A549 P300 HiBit cells
The experiment in a line: P300 degradation, HiBit technology in A549 P300 HiBit cells (2 h). The class given is cell-based. As to conditions: 2 hrs post treatment; for Dmax: A549, A549 P300 HiBit cells; for DC50: A549 P300 HiBit cells. Summed up: (§1)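 Endogenously HiBiT-tagged A549 cells are plated, left overnight, then treated with a compound dilution series at 37 °C and 5% CO2. At the set time, lytic detection buffer is added and plates are shaken 10 min at room temperature before luminescence is measured to derive potency and Dmax.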

For the next test, the target named is T2, CBP (Homo sapiens, UniProt Q92793).
T2 construct: host or cells: A549 CBP HiBit cells
Briefly: CBP degradation, HiBit technology in A549 CBP HiBit cells (24 h). Particulars: 24 hrs post treatment. The class given is cell-based. The method in brief: as §1
In general terms: The HiBiT peptide binds its large partner to form an active luciferase.

The results in this text go back to patent US20250114345A1, “COMPOUNDS AND COMPOSITIONS AS CBP/P300 DEGRADERS AND USES THEREOF” (Oncopia Therapeutics, Inc. d/b/a/ SK Life Science Labs, priority 2023, published 2025).

Some results are limits rather than exact numbers.

T2 sequence (Q92793 whole entry): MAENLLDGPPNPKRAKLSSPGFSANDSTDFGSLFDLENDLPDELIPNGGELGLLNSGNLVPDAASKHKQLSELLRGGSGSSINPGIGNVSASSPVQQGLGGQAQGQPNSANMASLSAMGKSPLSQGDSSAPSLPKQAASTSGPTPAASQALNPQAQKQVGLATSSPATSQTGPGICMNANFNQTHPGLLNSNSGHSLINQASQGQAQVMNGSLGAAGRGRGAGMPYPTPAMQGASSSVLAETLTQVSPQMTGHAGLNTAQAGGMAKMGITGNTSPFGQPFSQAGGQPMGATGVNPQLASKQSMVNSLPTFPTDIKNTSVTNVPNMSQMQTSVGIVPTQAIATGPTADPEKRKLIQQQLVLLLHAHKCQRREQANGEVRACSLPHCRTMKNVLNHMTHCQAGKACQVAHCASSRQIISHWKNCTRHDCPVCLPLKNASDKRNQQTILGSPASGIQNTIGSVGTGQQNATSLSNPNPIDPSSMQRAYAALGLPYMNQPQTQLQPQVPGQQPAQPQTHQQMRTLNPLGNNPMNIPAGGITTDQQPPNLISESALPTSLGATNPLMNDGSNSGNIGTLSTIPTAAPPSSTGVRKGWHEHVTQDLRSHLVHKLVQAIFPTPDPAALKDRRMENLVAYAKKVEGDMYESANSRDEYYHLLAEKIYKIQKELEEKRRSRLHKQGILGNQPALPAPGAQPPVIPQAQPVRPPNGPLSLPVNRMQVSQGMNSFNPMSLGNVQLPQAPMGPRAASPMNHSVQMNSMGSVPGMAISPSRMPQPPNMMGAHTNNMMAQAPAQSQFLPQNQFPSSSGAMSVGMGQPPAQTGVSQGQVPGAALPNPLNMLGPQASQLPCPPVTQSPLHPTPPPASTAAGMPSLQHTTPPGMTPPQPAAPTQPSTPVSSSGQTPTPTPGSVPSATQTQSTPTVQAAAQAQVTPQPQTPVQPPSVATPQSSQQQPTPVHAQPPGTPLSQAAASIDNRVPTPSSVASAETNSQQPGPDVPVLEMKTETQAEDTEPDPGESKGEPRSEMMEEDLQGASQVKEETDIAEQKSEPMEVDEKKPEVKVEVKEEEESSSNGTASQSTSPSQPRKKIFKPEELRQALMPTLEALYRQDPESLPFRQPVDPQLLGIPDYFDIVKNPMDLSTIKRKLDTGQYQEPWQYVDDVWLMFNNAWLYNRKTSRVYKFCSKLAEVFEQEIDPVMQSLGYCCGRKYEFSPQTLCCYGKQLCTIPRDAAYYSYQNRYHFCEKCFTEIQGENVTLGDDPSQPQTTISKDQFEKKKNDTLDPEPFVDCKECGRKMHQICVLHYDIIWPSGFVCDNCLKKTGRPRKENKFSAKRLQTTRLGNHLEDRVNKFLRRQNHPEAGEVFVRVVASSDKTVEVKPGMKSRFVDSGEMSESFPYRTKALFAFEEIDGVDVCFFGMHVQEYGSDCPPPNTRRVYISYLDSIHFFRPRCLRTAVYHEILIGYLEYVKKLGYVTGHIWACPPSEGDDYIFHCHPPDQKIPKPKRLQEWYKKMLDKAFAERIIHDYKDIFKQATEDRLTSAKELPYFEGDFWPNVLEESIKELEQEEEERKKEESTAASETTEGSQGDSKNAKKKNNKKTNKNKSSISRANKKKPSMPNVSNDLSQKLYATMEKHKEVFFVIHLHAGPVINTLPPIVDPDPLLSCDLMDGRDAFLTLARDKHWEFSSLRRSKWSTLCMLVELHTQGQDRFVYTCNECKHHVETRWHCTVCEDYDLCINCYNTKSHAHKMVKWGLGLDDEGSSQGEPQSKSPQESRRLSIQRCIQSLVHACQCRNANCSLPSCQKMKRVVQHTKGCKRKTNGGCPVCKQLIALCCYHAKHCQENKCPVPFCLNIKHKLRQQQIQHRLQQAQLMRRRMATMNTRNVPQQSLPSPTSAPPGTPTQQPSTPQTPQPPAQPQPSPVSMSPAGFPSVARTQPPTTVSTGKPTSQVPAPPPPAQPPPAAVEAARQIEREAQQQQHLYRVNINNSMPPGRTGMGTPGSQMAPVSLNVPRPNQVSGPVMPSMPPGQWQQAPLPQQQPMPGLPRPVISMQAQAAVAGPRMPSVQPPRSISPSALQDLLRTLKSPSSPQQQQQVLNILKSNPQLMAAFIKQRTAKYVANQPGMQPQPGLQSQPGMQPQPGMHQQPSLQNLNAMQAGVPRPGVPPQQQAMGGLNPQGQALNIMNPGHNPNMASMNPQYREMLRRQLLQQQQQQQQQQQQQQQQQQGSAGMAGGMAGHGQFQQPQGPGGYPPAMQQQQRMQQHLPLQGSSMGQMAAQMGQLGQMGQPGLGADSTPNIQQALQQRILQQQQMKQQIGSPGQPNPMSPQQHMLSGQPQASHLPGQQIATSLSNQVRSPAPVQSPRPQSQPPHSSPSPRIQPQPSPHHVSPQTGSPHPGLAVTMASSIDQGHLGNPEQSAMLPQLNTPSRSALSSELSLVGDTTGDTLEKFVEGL
T1 sequence (Q09472 whole entry): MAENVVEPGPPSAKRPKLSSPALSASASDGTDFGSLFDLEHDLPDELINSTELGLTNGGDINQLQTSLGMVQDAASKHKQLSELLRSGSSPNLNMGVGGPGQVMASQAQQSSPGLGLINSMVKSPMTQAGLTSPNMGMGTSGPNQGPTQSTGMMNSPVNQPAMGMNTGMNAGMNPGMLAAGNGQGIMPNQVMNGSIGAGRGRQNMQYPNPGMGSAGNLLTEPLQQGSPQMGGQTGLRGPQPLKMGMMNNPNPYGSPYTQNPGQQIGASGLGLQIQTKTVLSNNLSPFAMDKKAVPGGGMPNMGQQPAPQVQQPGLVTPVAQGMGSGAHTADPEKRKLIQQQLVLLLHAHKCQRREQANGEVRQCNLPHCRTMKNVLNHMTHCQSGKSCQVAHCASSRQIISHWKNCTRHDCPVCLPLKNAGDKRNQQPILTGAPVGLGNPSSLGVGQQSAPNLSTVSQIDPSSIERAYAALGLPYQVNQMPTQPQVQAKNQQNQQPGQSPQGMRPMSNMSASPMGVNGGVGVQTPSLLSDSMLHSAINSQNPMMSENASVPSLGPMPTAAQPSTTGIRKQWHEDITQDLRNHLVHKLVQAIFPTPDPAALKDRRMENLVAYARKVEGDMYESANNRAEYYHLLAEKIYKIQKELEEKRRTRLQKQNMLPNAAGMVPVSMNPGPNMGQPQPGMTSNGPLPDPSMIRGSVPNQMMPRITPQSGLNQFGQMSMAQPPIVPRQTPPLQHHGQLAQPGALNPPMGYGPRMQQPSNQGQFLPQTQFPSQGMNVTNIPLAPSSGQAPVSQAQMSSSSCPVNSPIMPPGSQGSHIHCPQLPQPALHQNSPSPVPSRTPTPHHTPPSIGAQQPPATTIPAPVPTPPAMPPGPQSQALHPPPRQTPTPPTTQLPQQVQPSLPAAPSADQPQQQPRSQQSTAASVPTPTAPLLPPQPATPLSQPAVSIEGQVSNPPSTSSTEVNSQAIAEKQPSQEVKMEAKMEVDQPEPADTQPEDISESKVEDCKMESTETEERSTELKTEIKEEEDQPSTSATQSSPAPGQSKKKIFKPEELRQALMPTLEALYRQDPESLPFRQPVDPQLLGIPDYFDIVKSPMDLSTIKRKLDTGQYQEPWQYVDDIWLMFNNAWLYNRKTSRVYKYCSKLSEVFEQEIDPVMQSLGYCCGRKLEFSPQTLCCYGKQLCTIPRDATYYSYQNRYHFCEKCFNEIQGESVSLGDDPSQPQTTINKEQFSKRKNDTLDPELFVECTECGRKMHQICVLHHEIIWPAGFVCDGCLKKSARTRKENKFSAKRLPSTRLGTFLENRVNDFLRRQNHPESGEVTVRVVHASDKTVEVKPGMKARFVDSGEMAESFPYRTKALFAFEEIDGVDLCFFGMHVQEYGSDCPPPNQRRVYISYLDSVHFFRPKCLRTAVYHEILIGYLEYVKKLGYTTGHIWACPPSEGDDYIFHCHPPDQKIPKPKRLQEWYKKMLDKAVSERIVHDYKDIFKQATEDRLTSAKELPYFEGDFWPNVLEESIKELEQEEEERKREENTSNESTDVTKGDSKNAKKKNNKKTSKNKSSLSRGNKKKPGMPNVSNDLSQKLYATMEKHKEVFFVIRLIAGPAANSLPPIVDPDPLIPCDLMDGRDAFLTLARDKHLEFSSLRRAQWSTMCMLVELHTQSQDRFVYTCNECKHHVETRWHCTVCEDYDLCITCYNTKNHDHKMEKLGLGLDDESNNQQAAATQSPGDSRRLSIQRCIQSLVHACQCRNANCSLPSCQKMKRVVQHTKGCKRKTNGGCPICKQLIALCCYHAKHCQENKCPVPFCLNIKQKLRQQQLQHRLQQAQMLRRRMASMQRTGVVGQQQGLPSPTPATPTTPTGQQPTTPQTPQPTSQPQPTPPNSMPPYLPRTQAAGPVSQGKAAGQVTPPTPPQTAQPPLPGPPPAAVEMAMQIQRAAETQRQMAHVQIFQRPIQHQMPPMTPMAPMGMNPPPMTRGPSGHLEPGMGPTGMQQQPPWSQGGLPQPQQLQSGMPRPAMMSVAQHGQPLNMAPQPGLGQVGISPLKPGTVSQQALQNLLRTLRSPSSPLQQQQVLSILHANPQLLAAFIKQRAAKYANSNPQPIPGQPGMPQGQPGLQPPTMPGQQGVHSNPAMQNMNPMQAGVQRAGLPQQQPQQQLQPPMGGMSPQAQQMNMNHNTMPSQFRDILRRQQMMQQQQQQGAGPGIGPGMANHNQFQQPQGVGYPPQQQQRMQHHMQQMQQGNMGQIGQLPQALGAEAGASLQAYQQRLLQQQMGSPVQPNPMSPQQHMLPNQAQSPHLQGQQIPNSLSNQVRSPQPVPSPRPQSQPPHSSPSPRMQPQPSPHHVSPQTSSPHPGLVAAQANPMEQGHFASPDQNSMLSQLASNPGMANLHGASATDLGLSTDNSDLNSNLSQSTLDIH

As usually defined, the Dmax is the largest share of the target that was removed. In general, DC50 refers to the midpoint of the concentration-degradation curve. A low value points to a more potent degrader. On p300, `Cc1cc(-c2cc3cccc(-c4cc5c(c(N6CC7CCC(C6)O7)n4)n(C)c(=O)n5C)c3cn2)cnc1C(=O)NCC#Cc1ccc2occ(C3CCC(=O)NC3=O)c2c1` (centres unmarked) [Example A69, 5-(8-(4-(8-oxa-3-azabicyclo [3.2.1]octan-3-yl)-1,3-dimethyl-2-oxo-2,3-dihydro-1H-imidazo[4,5-c]pyridin-6-yl)isoquinolin-3-yl)-N-(3-(3-(2,6-dioxo-piperidin-3-yl)benzofuran-5-yl)prop-2-yn-1-yl)-3-methylpicolinamide] showed a Dmax of more than 80% and a DC50 of 1 to 9.9 nM. At CBP, the DC50 was more than 1000 nM and the Dmax was less than 20%.
At p300, `Cc1cc2c(N3CCCc4cc(-c5ccc(C(=O)NCC#Cc6ccc7occ(C8CCC(=O)NC8=O)c7c6)nc5)nnc43)cc(C3CCOCC3)cc2n(C)c1=O` (centres unmarked) [Example B64, 5-(8-(1,3-dimethyl-2-oxo-7-(tetrahydro-2H-pyran-4-yl)-1,2-dihydroquinolin-5-yl)-5,6,7,8-tetrahydropyrido[2,3-c]pyridazin-3-yl)-N-(3-(3-(2,6-dioxopiperidin-3-yl)benzofuran-5-yl)prop-2-yn-1-yl)picolinamide] yielded a Dmax of more than 80% and a DC50 of 1 to 9.9 nM. On CBP, this compound came in with a DC50 of more than 1000 nM and a Dmax of less than 20%.
